Key:
c-Met = c-Met (Homo sapiens, UniProt P08581); assay: c-Met Inhibition Assay, coupled enzyme system; type: biochemical; conditions: enzyme inhibition data (Ki), Table 11
Summary of the method: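 Pyruvate kinase/lactate dehydrogenase-coupled NADH assay in HEPES pH 7.5 with 80 nM c-Met, 200 μM ATP and 10 μM polyGluTyr at 30° C. Compound (0.006–12.5 μM final, 12-point) preincubated 10 min before ATP start; rates over 10 min gave Ki.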

Itk = molecular target: T1, Itk (Homo sapiens, UniProt Q08881); assay: ITK Inhibition Assay (Radiometric), radioactive-phosphate incorporation; type: biochemical; conditions: enzyme inhibition data (Ki), Table 11; radiometric or UV assay not stated
T1 sequence (Q08881 1-620): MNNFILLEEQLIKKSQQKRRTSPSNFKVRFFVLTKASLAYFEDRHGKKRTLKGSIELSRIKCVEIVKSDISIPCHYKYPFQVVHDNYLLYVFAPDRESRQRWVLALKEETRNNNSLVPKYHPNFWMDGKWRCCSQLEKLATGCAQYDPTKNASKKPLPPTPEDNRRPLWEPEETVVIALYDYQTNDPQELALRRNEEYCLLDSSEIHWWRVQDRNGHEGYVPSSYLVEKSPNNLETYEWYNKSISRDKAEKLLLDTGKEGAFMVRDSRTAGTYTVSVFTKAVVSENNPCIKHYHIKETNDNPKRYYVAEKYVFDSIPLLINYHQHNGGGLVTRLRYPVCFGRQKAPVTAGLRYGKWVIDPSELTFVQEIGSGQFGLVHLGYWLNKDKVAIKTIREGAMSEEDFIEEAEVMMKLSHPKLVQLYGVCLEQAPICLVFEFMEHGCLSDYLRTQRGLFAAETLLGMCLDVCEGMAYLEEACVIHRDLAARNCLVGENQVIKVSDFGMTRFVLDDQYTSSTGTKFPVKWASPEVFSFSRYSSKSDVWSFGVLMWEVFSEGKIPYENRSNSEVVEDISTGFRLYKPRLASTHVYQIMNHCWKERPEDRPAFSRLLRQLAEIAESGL
Summary of the method: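 Radiometric 33P incorporation into SAM68 peptide (D332-443) with filter capture and scintillation counting; 10 min pre-incubation then 10 min reaction at 25° C. IC50 format: 30 nM Itk, 15 μM ATP, 2 μM peptide, HEPES pH 7.5. Ki(app) format: 50 nM Itk, 7.5 μM ATP, 3 μM peptide, MOPS pH 7.0.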

Sequence of c-Met (P08581 25-1390): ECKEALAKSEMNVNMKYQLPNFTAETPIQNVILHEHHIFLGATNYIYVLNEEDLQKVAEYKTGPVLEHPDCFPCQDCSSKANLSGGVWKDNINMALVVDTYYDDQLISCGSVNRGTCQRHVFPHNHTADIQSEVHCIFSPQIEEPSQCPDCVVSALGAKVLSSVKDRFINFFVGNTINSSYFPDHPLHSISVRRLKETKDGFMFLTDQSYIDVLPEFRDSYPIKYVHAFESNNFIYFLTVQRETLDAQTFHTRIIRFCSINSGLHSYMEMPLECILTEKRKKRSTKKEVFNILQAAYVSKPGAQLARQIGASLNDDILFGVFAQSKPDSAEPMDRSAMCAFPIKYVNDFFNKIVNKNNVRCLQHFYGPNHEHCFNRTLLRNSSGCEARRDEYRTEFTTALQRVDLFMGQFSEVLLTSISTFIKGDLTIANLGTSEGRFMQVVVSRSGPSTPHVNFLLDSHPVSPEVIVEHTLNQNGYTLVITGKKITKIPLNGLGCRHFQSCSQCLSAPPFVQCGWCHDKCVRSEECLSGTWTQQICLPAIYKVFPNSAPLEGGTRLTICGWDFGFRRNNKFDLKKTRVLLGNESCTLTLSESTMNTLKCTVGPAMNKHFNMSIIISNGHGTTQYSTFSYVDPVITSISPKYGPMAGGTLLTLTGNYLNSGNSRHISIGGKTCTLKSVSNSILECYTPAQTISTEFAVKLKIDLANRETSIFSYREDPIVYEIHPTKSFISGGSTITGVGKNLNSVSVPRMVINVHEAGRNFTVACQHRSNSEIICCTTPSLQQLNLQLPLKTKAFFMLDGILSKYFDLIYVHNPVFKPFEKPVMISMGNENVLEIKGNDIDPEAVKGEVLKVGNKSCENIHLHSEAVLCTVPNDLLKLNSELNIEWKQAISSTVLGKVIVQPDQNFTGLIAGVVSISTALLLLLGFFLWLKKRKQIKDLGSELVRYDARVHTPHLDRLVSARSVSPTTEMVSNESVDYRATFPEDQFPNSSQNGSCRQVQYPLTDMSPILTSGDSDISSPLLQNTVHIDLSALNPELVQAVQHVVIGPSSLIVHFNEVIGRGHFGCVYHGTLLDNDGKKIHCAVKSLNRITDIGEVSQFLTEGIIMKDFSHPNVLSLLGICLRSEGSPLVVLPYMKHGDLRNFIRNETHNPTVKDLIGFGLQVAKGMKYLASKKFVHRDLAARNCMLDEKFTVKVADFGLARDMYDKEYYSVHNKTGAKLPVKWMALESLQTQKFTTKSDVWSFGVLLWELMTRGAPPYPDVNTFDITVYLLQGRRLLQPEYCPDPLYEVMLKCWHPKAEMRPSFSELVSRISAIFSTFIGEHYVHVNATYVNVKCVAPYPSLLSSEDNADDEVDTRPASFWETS

**Q.** How did the Ki (c-Met) turn out when Nc1nn2cc(-c3cccc(CN4CCNCC4)c3)cnc2c1-c1ccccn1 [Compound V-223] was run?
**A.** < 500 nM

**Q.** What about the Ki (Itk) of the same molecule?
**A.** < 500 nM

**Q.** What does the source list for NC1NN2C=C(c3cccc(CN4CC[C@@H](N)C4)c3)C=NC2=C1c1ccccn1 (some centres unmarked) [Compound V-226]?
**A.** Ki (c-Met): < 500 nM; Ki (Itk): < 500 nM

**Q.** NCc1cccc(-c2cnc3c(-c4ccccn4)c(N)nn3c2)c1 [Compound V-202] was tested. Which Ki (c-Met) did it give?
**A.** < 500 nM

**Q.** And the Ki (Itk)?
**A.** < 500 nM

**Q.** For CS(=O)(=O)Nc1cccc(-c2cnc3c(-c4ccccn4)c(N)nn3c2)c1 [Compound V-18], which Ki (c-Met) is on record?
**A.** < 500 nM

**Q.** What about the Ki (Itk) of the same molecule?
**A.** < 500 nM

**Q.** Which Ki (c-Met) does the source give for Nc1nn2cc(-c3ccncc3)cnc2c1-c1cc(Nc2ccccc2)ncn1 [Compound V-241] here?
**A.** < 500 nM

**Q.** And the Ki (Itk)?
**A.** < 500 nM

**Q.** CCN1CCN(c2ccc(-c3cnc4c(-c5ccccn5)c(N)nn4c3)cn2)CC1 [Compound V-166] was tested. Which Ki (c-Met) did it give?
**A.** < 500 nM

**Q.** What about the Ki (Itk) of the same molecule?
**A.** < 500 nM

**Q.** Which results are given for COc1ccc(-c2cnc3c(-c4ccncc4)c(N)nn3c2)cc1 [Compound V-219]?
**A.** Ki (c-Met): 500 to 5000 nM; Ki (Itk): 500 to 5000 nM

**Q.** For Nc1nn2cc(-c3ccc(CN4CCC(N)CC4)cc3)cnc2c1-c1ccccn1 [Compound V-234], which Ki (c-Met) is on record?
**A.** < 500 nM

**Q.** And the Ki (Itk)?
**A.** < 500 nM

**Q.** Which Ki (c-Met) does the source give for Nc1nn2cc(-c3cccc(C(=O)N4CCC[C@@H]4CN4CCCC4)n3)cnc2c1-c1ccccn1 [Compound V-175] here?
**A.** < 500 nM

**Q.** And the Ki (Itk)?
**A.** 500 to 5000 nM

**Q.** With Nc1nn2cc(-c3ccc(CN4CCOCC4)cc3)cnc2c1-c1ccccn1 [Compound V-208] as the molecule, how does the Ki (c-Met) read?
**A.** 500 to 5000 nM

**Q.** What about the Ki (Itk) of the same molecule?
**A.** < 500 nM

**Q.** Which results are given for C#CCN(C)C(=O)c1cccc(-c2cnc3c(-c4ccccn4)c(N)nn3c2)n1 [Compound V-106]?
**A.** Ki (c-Met): < 500 nM; Ki (Itk): 500 to 5000 nM

**Q.** What does the source list for Nc1nn2cc(-c3cccc(C(=O)N4CCC[C@H]4CN4CCCC4)n3)cnc2c1-c1ccccn1 [Compound V-154]?
**A.** Ki (c-Met): < 500 nM; Ki (Itk): 500 to 5000 nM

**Q.** For COc1ccccc1Nc1cc(-c2c(N)nn3cc(-c4ccncc4)cnc23)ncn1 [Compound V-242], which Ki (c-Met) is on record?
**A.** < 500 nM

**Q.** And the Ki (Itk)?
**A.** < 500 nM

**Q.** For CN1CCCN(c2ccc(-c3cnc4c(-c5ccccn5)c(N)nn4c3)cn2)CC1 [Compound V-160], which Ki (c-Met) is on record?
**A.** < 500 nM

**Q.** And the Ki (Itk)?
**A.** 500 to 5000 nM

**Q.** For Nc1nn2cc(-c3ccncc3)cnc2c1-c1ncccc1OCc1ccccc1 [Compound V-134], which Ki (c-Met) is on record?
**A.** 500 to 5000 nM

**Q.** And the Ki (Itk)?
**A.** 500 to 5000 nM

**Q.** For CC(C)N1CCN(c2ccc(-c3cnc4c(-c5ccccn5)c(N)nn4c3)cn2)CC1 [Compound V-146], which Ki (c-Met) is on record?
**A.** < 500 nM

**Q.** What about the Ki (Itk) of the same molecule?
**A.** < 500 nM

**Q.** Nc1nn2cc(-c3ccc(C(=O)N4CCC[C@H]4CN4CCCC4)cn3)cnc2c1-c1ccccn1 [Compound V-177] was tested. Which Ki (c-Met) did it give?
**A.** < 500 nM

**Q.** And the Ki (Itk)?
**A.** < 500 nM

**Q.** With CN(C)CCNc1ccc(-c2cnc3c(-c4ccccn4)c(N)nn3c2)cn1 [Compound V-159] as the molecule, how does the Ki (c-Met) read?
**A.** < 500 nM

**Q.** What about the Ki (Itk) of the same molecule?
**A.** < 500 nM

**Q.** For Nc1nn2cc(-c3ccncc3)cnc2c1-c1cc(NC2CCCCC2)ncn1 [Compound V-183], which Ki (c-Met) is on record?
**A.** < 500 nM

**Q.** What about the Ki (Itk) of the same molecule?
**A.** < 500 nM

**Q.** What does the source list for Nc1nn2cc(-c3cccc(CN4CCOCC4)c3)cnc2c1-c1ccccn1 [Compound V-225]?
**A.** Ki (c-Met): < 500 nM; Ki (Itk): 500 to 5000 nM

**Q.** For CC(C)CNc1cc(-c2c(N)nn3cc(-c4ccncc4)cnc23)ncn1 [Compound V-185], which Ki (c-Met) is on record?
**A.** < 500 nM

**Q.** What about the Ki (Itk) of the same molecule?
**A.** < 500 nM

**Q.** For Nc1nn2cc(-c3ccc(C(=O)NC4CCCO4)cn3)cnc2c1-c1ccccn1 (centres unmarked) [Compound V-96], which Ki (c-Met) is on record?
**A.** < 500 nM

**Q.** And the Ki (Itk)?
**A.** 500 to 5000 nM

**Q.** For CCN(CCC#N)C(=O)c1cccc(-c2cnc3c(-c4ccccn4)c(N)nn3c2)n1 [Compound V-116], which Ki (c-Met) is on record?
**A.** < 500 nM

**Q.** What about the Ki (Itk) of the same molecule?
**A.** 500 to 5000 nM

**Q.** What does the source list for CN(C)Cc1cccc(-c2cnc3c(-c4ccccn4)c(N)nn3c2)c1 [Compound V-215]?
**A.** Ki (c-Met): < 500 nM; Ki (Itk): < 500 nM

**Q.** What does the source list for Nc1nn2cc(-c3ccc(CNC4CCNCC4)cc3)cnc2c1-c1ccccn1 [Compound V-232]?
**A.** Ki (c-Met): < 500 nM; Ki (Itk): < 500 nM

**Q.** For Cc1cccc(-c2c(N)nn3cc(-c4ccncc4)cnc23)n1 [Compound V-178], which Ki (c-Met) is on record?
**A.** 500 to 5000 nM

**Q.** And the Ki (Itk)?
**A.** < 500 nM

**Q.** How did the Ki (c-Met) turn out when Cc1cccnc1-c1c(N)nn2cc(-c3ccncc3)cnc12 [Compound V-135] was run?
**A.** 500 to 5000 nM

**Q.** And the Ki (Itk)?
**A.** 500 to 5000 nM

**Q.** What does the source list for CNCCN(C)C(=O)c1cccc(-c2cnc3c(-c4ccccn4)c(N)nn3c2)c1 [Compound V-189]?
**A.** Ki (c-Met): < 500 nM; Ki (Itk): < 500 nM

**Q.** For Nc1nn2cc(-c3cccc(C(=O)N4CCC(N)CC4)n3)cnc2c1-c1ccccn1 [Compound V-104], which Ki (c-Met) is on record?
**A.** < 500 nM

**Q.** And the Ki (Itk)?
**A.** 500 to 5000 nM

**Q.** What does the source list for CN(C)CCN(C)C(=O)c1ccc(-c2cnc3c(-c4ccccn4)c(N)nn3c2)cc1 [Compound V-188]?
**A.** Ki (c-Met): < 500 nM; Ki (Itk): < 500 nM

**Q.** Which Ki (c-Met) does the source give for CN(CCCN)C(=O)c1ccc(-c2cnc3c(-c4ccccn4)c(N)nn3c2)nc1 [Compound V-130] here?
**A.** < 500 nM

**Q.** And the Ki (Itk)?
**A.** < 500 nM
